Data reported in patent publication US12691136B2, “Metal compositions and methods of use thereof” (THE UNIVERSITY OF MASSACHUSETTS, priority 2020, dated 2026).
Entries after “also recorded” stand apart in the source; their conditions may differ. Where two headings read alike, the source gives them in different places.

Key:
[1] = system: Pseudomonas aeruginosa PAO1; assay: Antibacterial assay / bacterial checkerboard assay (MIC, FIC, MBC); conditions: for Enhancement: MIC without TU vs with 7 mM TU; for change in MIC / activity with the addition of TU (isobologram): FIG. 1A / 1B, combination with TU; for MIC: Pseudomonas aeruginosa; for Fold Improvement in MIC: at the best FIC; for impact of TU on activity: common antibiotics with TU, Table 3 entries; for Best FIC: with TU at the [TU] of the same line
[2] = system: Pseudomonas aeruginosa PAO1; conditions: reference antibiotics against P. aeruginosa PAO1; cited from earlier work
[3] = [Au], Table 8, strain not given

CC(=O)OC[C@H]1O[C@@H]([S-])[C@H](OC(C)=O)[C@@H](OC(C)=O)[C@@H]1OC(C)=O.CCP(CC)CC.[Au+] [Auranofin, auranofin]
MIC (0 mM TU) ([1]; [Au], Table 9): 377 µM | activity enhancement ([1]; 7 mM TU vs alone): 256 fold | MIC (7 mM TU) ([1]; [Au], Table 9): 1.5 µM | Enhancement ([1]; Table 9): 256

O.O.O.[Cl][Au-]([Cl])([Cl])[Cl].[H+] [HAuCl4 (Au^3+), tetrachloroauric(III) acid trihydrate]
MIC (0 mM TU) ([1]; [Au], Table 9): 40 µM | activity enhancement ([1]; 7 mM TU vs alone): 32 fold | MIC (7 mM TU) ([1]; [Au], Table 9): 1.3 µM | Enhancement ([1]; Table 9): 32

C[PH](C)(C)[Au][S]CCO [MS-40, trimethylphosphine gold(I) mercaptoethanol]
MIC (0 mM TU) [1, 3]: 5.7 µM | MIC (1 mM TU) ([1]; 1 mM TU, [Au], Table 8, strain not given): 5.7 µM | MIC (2 mM TU) ([1]; 2 mM TU, [Au], Table 8, strain not given): 5.7 µM | MIC (3 mM TU) ([1]; 3 mM TU, [Au], Table 8, strain not given): 5.7 µM | MIC (7 mM TU) [1, 3]: 5.7 µM | MIC (13 mM TU) ([1]; 13 mM TU, [Au], Table 8, strain not given): 2.9 µM | MIC (27 mM TU) ([1]; 27 mM TU, [Au], Table 8, strain not given): 2.9 µM | MIC (54 mM TU) ([1]; 54 mM TU, [Au], Table 8, strain not given): 1.4 µM | activity enhancement ([1]; at 54 mM TU): 4 fold

CCN1CCN(C(=O)N[C@@H](C(=O)N[C@@H]2C(=O)N3[C@@H]2SC(C)(C)[C@@H]3C(=O)O)c2ccccc2)C(=O)C1=O [Piperacillin]
change in MIC / activity with the addition of TU (isobologram) [1]: very little change | change in MIC / activity with the addition of TU (isobologram) ([1]; listed as piperacillin): almost no change | MIC ([1]; PAO1, read-out: MIC w/o TU): 2 µM | MIC ([1]; PAO1, read-out: MIC with TU): 2 µM | Fold Improvement in MIC [1]: 1 | impact of TU on activity [1]: no impact | Best FIC [1]: 1.0

NC(N)=S [TU, thiourea]
MIC ([1]; PAO1): 16 mg/mL

O=C(O)c1cn(C2CC2)c2cc(N3CCNCC3)c(F)cc2c1=O [ciprofloxacin]
change in MIC / activity with the addition of TU (isobologram) [1]: very little change; also recorded: almost no change

Gentamicin
change in MIC / activity with the addition of TU (isobologram) [1]: very little change; also recorded: almost no change | MIC with TU ([1]; TU at the [TU] of the same line (best FIC)): 4.0 µM | Fold Improvement in MIC [1]: 1 | impact of TU on activity [1]: no impact | Best FIC [1]: 1.0 | MIC w/o TU ([1]; without TU): 4.0 µM

colistin
MIC [2]: 0.001 mg/mL
